Experimental data as given in patent US20250188457A1, “COMPOSITIONS AND METHODS FOR THE TREATMENT OF GLIOBLASTOMA BY INHIBITION OF THE TFPI2-CD51-STAT6 SIGNALING AXIS” (Northwestern University, priority 2023, published 2025).

Key:
005 GSC and CT2A tumors = assay: Survival of C57BL/6 mice implanted with 005 GSCs or CT2A cells; format: in vivo, mouse; details: for survival of mice bearing 005 GSC and CT2A tumors, combination with anti-PD1 therapy: anti-PD1 10 mg/kg i.p. on days 11, 14 and 17, MK-0429 30 mg/kg or AS1517499 10 mg/kg i.p. every other day
Description: (§1) Female C57BL/6 (#0000664), nude mice (#007850), and B6.12952(C)-Stat6tm1Gru/J mice (STAT6-KO; #005977) at 6 weeks of age were purchased from the Jackson Laboratory. Mice were grouped by 5 animals and maintained in a pathogen-free IVC System (San Diego, CA) for a week before the experiment. All animal experiments were performed with the approval of the Institutional Animal Care and Use Committee (IACUC) at Northwestern University. The intracranial xenograft tumor models were established (Refs. 11, 61; incorporated by reference in their entireties). Ketamine (100 mg/kg) and xylazine (20 mg/kg) were used for anesthetizing mice through intraperitoneal injection. Then a dental drill was used to open a small hole in the skull 1.2 mm anterior and 3.0 mm lateral to the bregma. A total volume of […] cells in FBS-free DMEM was injected into the right caudate nucleus 3 mm below the surface of the brain using a […] Hamilton syringe with an unbeveled 30-gauge needle. Total three doses of 20 mg/kg meloxicam were administrated before and after surgery through subcutaneous injection. After cancer cell implantation, mice were monitored for recording survival. Mice with neurological deficits or moribund appearance were sacrificed. Following the transcardiac perfusion with PBS and 4% paraformaldehyde (PFA), brains were removed and fixed in 4% PFA, and were processed for paraffin-embedded blocks or cryosectioning.

STAT3 = assay: Immunoblot for P-STAT3 and STAT3 in GSCs; format: cell-based, human; details: GSC23 and GSC262, TFPI2 OE or TFPI2 recombinant protein 20 ng/ml; JNK-IN-8 10 nM
Description: (§2) The protein expression in cells was determined by western blotting analysis (Ref. 61; incorporated by reference in its entirety). Cells were homogenized in RIPA lysis buffer containing phosphatase/protease cocktail inhibitors (Cell Signaling Technology, #5870). The protein concentration was determined by BCA Protein Assay Kit (Thermo Fisher Scientific, #P123225). Protein solution was mixed with the Leammli sample buffer and heated at 95° C. before loading to SurePAGE gels (GenScript, #M00653). The gels were run at a constant voltage of 80 V and then transferred to 0.2 μm nitrocellulose membrane (Bio-Rad, #1620112) using the Trans-Blot Turbo system (Bio-Rad) with a preprogrammed standard protocol for 30 min. Nitrocellulose membrane was incubated with 5% dry milk to block any unspecific staining. […]

GSC23 and GSC262 cells [1] = assay: CFSE proliferation analysis of GSCs; format: cell-based, human; details: GSC23 and GSC262 with TFPI2 OE plasmid; JNK-IN-8 10 nM, WP1066 20 nM
Description: Cell proliferation was assessed using the CellTrace CFSE Cell Proliferation Kit (Invitrogen, #C34554). 10^6 cells were harvested and incubated with CFSE working solution (1:1000) for 20 min at 37° C. The staining was stopped by adding complete cell culture media. After washing, cells were continuously cultured for 5 days in the dark. At the end of the incubation, cells were collected by spinning down at 1500 rpm for 5 min. The cell pellet was resuspended in cell staining buffer for flow cytometry analysis. The percentage of CFSE positive peaks over the undivided peak (generation 0) was analyzed using the ImageJ software.

GSC23 and GSC262 cells [2] = assay: Apoptosis analysis of GSCs (Apotracker/PI flow cytometry); format: cell-based, human; details: GSC23 and GSC262 with TFPI2 OE plasmid; JNK-IN-8 10 nM, WP1066 20 nM
Description: Cell apoptosis was evaluated using Apotracker Green (BioLegend, #427402) (Ref. 78; incorporated by reference in its entirety). 10^5 cells were collected and stained with Apotracker (1:10 dilution) in […] cell staining buffer. […] propidium iodide (PI) solution (BioLegend, #421301) was added for labeling late apoptotic and necrotic cells. After washing with PBS twice, FITC and PI signals were analyzed in BD FACSymphony flow cytometer.

GSC23 and GSC262 cells [3] = assay: Tumorsphere formation assay (GSC self-renewal); format: cell-based, human; details: GSC23 and GSC262 with TFPI2 OE plasmid; JNK-IN-8 10 nM, WP1066 20 nM
Description: The tumorsphere formation assay was performed (Ref. 79; incorporated by reference in its entirety). GSCs were treated with different concentrations of recombinant TFPI2 protein for 24 hrs with or without inhibition of JNK or STAT3, or modified with TFPI21 KO, knockdown or overexpression. After treatment or genetic modifications, cells were centrifuged at 1500 rpm for 5 min and resuspended in the plain cell culture media without additional supplements. Cells were then seeded into a 96-wells plate at 100 cells/well. The number of tumorspheres in each well was imaged and quantified after 10 days.

GSC23 tumor = assay: Survival of nude mice implanted with GSC23 expressing TFPI2 overexpression plasmid; format: in vivo, mouse; details: 30 mg/kg body weight, i.p., every day, on day 7
Description: as §1, with “Following the transcardiac perfusion with PBS and 4% paraformaldehyde (PFA), brains were removed and fixed in 4% PFA, and were processed for paraffin-embedded blocks or cryosectioning.” left out

JNK = assay: Immunoblot for P-JNK and JNK in GSCs; format: cell-based, human; details: GSC23 and GSC262, TFPI2 OE or TFPI2 recombinant protein 20 ng/ml; WP1066 20 nM
Description: as §2

Row | Structure (SMILES) | survival of mice implanted with 005 GSCs and CT2A cells, inhibitor alone (005 GSC and CT2A tumors; MK-0429 30 mg/kg or AS1517499 10 mg/kg, i.p., every other day, on day 7, Cilengitide dose not given) | survival of mice bearing 005 GSC and CT2A tumors, combination with anti-PD1 therapy (005 GSC and CT2A tumors) | TFPI2-induced STAT3 activation (P-STAT3) (STAT3) | proliferation effect of increasing cellular TFPI2 in GSCs (GSC23 and GSC262 cells [1]) | apoptotic effect of increasing cellular TFPI2 in GSCs (GSC23 and GSC262 cells [2]) | self-renewal effect of increasing cellular TFPI2 in GSCs (tumorspheres) (GSC23 and GSC262 cells [3]) | shortening of survival by TFPI2 overexpression in GSC23 tumor-bearing mice (GSC23 tumor) | TFPI2-induced JNK activation (P-JNK) (JNK)
1 | CC(C)[C@H]1C(=O)N[C@@H](CCCN=C(N)N)C(=O)NCC(=O)N[C@@H](CC(=O)O)C(=O)N[C@H](Cc2ccccc2)C(=O)N1C [Cilengitide] | significantly extended the survival | enhanced the efficacy | – | – | – | – | – | –
2 | COc1ccc([C@H](CC(=O)O)N2CCN(CCCc3ccc4c(n3)NCCC4)C2=O)cn1 [MK-0429] | – | synergized | – | – | – | – | – | –
3 | Cc1cc(NC(=O)c2cccc(NC(=O)/C=C/CN(C)C)c2)ccc1Nc1nccc(-c2cccnc2)n1 [JNK-IN-8] | – | – | blocked | negated | negated | negated | abolished | –
4 | C[C@H](NC(=O)/C(C#N)=C/c1cccc(Br)n1)c1ccccc1 [WP1066] | – | – | – | negated | negated | negated | abolished | no effect
